Consider eight compounds from PMC4061985 (Journal of immunology (Baltimore, Md. : 1950), 2009).

Residues, ends and D or L forms follow the SMILES beside them.

The target in the assay is HLA-DR0901 protein (Homo sapiens, UniProt P01903+P01911, A100R/A103E/D57H/D86V/F55Y/F60I/F76Y/I96F/K127E/L162R/M171V/P40D/Q125H/Q99R/R33Q/R42F/S133A/S66N/T210M/V115G/W38K/Y107V/Y59G/Y89S). As to the kind of experiment: Peptide binding competition assay, DR0901.
In general, Kd refers to the constant that tells how readily two partners part at equilibrium. Low values mean a tighter complex, high ones a looser complex. In the case of `CC[C@H](C)[C@H](NC(=O)[C@H](CCCCN)NC(=O)[C@H](Cc1c[nH]cn1)NC(=O)[C@H](CC(C)C)NC(=O)[C@H](CO)NC(=O)[C@H](Cc1ccc(O)cc1)NC(=O)[C@H](CC(N)=O)NC(=O)[C@H](Cc1ccccc1)NC(=O)[C@H](CC(N)=O)NC(=O)[C@@H](N)CC(C)C)C(=O)N[C@H](C(=O)N[C@H](C(=O)N[C@@H](CC(=O)O)C(=O)O)C(C)C)[C@@H](C)CC` [LNFNYSLHKIIVD] (H-LNFNYSLHKIIVD-OH), the Kd is 87 ± 8 nM.

Turning to `CC[C@H](C)[C@H](NC(=O)[C@H](CCCCN)NC(=O)[C@H](CC(C)C)NC(=O)[C@H](CC(C)C)NC(=O)[C@H](CO)NC(=O)[C@H](Cc1ccc(O)cc1)NC(=O)[C@H](CC(N)=O)NC(=O)[C@H](Cc1ccccc1)NC(=O)[C@H](CC(N)=O)NC(=O)[C@@H](N)CC(C)C)C(=O)N[C@H](C(=O)N[C@H](C(=O)N[C@@H](CC(=O)O)C(=O)O)C(C)C)[C@@H](C)CC` [LNFNYSLLKIIVD] (H-LNFNYSLLKIIVD-OH), the Kd was found to be 67 ± 8 nM.

In turn, `CC[C@H](C)[C@H](NC(=O)[C@H](CCCCN)NC(=O)[C@H](CCSC)NC(=O)[C@H](CC(C)C)NC(=O)[C@H](CO)NC(=O)[C@H](Cc1ccc(O)cc1)NC(=O)[C@H](CC(N)=O)NC(=O)[C@H](Cc1ccccc1)NC(=O)[C@H](CC(N)=O)NC(=O)[C@@H](N)CC(C)C)C(=O)N[C@H](C(=O)N[C@H](C(=O)N[C@@H](CC(=O)O)C(=O)O)C(C)C)[C@@H](C)CC` [LNFNYSLMKIIVD] (H-LNFNYSLMKIIVD-OH) yielded a Kd of 46 ± 2 nM.

Take `CC[C@H](C)[C@H](NC(=O)[C@H](CCCCN)NC(=O)[C@H](CC(N)=O)NC(=O)[C@H](CC(C)C)NC(=O)[C@H](CO)NC(=O)[C@H](Cc1ccc(O)cc1)NC(=O)[C@H](CC(N)=O)NC(=O)[C@H](Cc1ccccc1)NC(=O)[C@H](CC(N)=O)NC(=O)[C@@H](N)CC(C)C)C(=O)N[C@H](C(=O)N[C@H](C(=O)N[C@@H](CC(=O)O)C(=O)O)C(C)C)[C@@H](C)CC` [LNFNYSLNKIIVD] (H-LNFNYSLNKIIVD-OH): the equilibrium dissociation constant (Kd) stood at 93 ± 19 nM.

`CC[C@H](C)[C@H](NC(=O)[C@H](CCCCN)NC(=O)[C@@H]1CCCN1C(=O)[C@H](CC(C)C)NC(=O)[C@H](CO)NC(=O)[C@H](Cc1ccc(O)cc1)NC(=O)[C@H](CC(N)=O)NC(=O)[C@H](Cc1ccccc1)NC(=O)[C@H](CC(N)=O)NC(=O)[C@@H](N)CC(C)C)C(=O)N[C@H](C(=O)N[C@H](C(=O)N[C@@H](CC(=O)O)C(=O)O)C(C)C)[C@@H](C)CC` [LNFNYSLPKIIVD] (H-LNFNYSLPKIIVD-OH) had a Kd of 31 ± 2 nM.

For the compound `CC[C@H](C)[C@H](NC(=O)[C@H](CCCCN)NC(=O)[C@H](CCCNC(=N)N)NC(=O)[C@H](CC(C)C)NC(=O)[C@H](CO)NC(=O)[C@H](Cc1ccc(O)cc1)NC(=O)[C@H](CC(N)=O)NC(=O)[C@H](Cc1ccccc1)NC(=O)[C@H](CC(N)=O)NC(=O)[C@@H](N)CC(C)C)C(=O)N[C@H](C(=O)N[C@H](C(=O)N[C@@H](CC(=O)O)C(=O)O)C(C)C)[C@@H](C)CC` [LNFNYSLRKIIVD] (H-LNFNYSLRKIIVD-OH), binding was put at a Kd of 130 ± 19 nM.

The compound `CC[C@H](C)[C@H](NC(=O)[C@H](CCCCN)NC(=O)[C@H](CO)NC(=O)[C@H](CC(C)C)NC(=O)[C@H](CO)NC(=O)[C@H](Cc1ccc(O)cc1)NC(=O)[C@H](CC(N)=O)NC(=O)[C@H](Cc1ccccc1)NC(=O)[C@H](CC(N)=O)NC(=O)[C@@H](N)CC(C)C)C(=O)N[C@H](C(=O)N[C@H](C(=O)N[C@@H](CC(=O)O)C(=O)O)C(C)C)[C@@H](C)CC` [LNFNYSLSKIIVD] (H-LNFNYSLSKIIVD-OH) came in with a dissociation constant Kd of 31 ± 3 nM.

`CC[C@H](C)[C@H](NC(=O)[C@H](CCCCN)NC(=O)[C@H](CC(=O)O)NC(=O)[C@H](CC(C)C)NC(=O)[C@H](Cc1ccc(O)cc1)NC(=O)[C@H](Cc1ccc(O)cc1)NC(=O)[C@H](CC(N)=O)NC(=O)[C@H](Cc1ccccc1)NC(=O)[C@H](CC(N)=O)NC(=O)[C@@H](N)CC(C)C)C(=O)N[C@H](C(=O)N[C@H](C(=O)N[C@@H](CC(=O)O)C(=O)O)C(C)C)[C@@H](C)CC` [LNFNYYLDKIIVD] (H-LNFNYYLDKIIVD-OH) came in with a Kd of 3400 nM.
